“And” between values parts separate entries of the source, which are not always exact repeats. Identical values can stand only once.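 Cultured in 96-well plates, cells were exposed to test compound for 48 hours across five concentrations. GI50 = concentration required for 50% inhibition of growth.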 The source made the active and inactive calls. No stated cut-off is given here; in the data, active = GI50 up to about 1.1 µM and inactive = higher.
Columns and labels:
Assay in all cases: DTP human tumour cell line panel, 48 h
SN12C = test system: SN12C
MCF7 = test system: MCF7
COLO 205 = test system: COLO 205
NCI-H23 = test system: NCI-H23
HT-29 = test system: HT-29
786-0 = test system: 786-0
SNB-19 = test system: SNB-19
SW-620 = test system: SW-620
NCI-H460 = test system: NCI-H460
HOP-62 = test system: HOP-62
KM12 = test system: KM12
LOX IMVI = test system: LOX IMVI
MDA-N = test system: MDA-N
OVCAR-5 = test system: OVCAR-5
A498 = test system: A498
SR = test system: SR
SF-295 = test system: SF-295
CAKI-1 = test system: CAKI-1
SF-268 = test system: SF-268
UACC-257 = test system: UACC-257

Row | Structure (SMILES) | GI50 (SN12C) | GI50 (MCF7) | GI50 (COLO 205) | GI50 (NCI-H23) | GI50 (HT-29) | GI50 (786-0) | GI50 (SNB-19) | GI50 (SW-620) | GI50 (NCI-H460) | GI50 (HOP-62) | GI50 (KM12) | GI50 (LOX IMVI) | GI50 (MDA-N) | GI50 (OVCAR-5) | GI50 (A498) | GI50 (SR) | GI50 (SF-295) | GI50 (CAKI-1) | GI50 (SF-268) | GI50 (UACC-257)
1 | O=C1CSC(c2ccccc2[N+](=O)[O-])N1c1ccc(-c2ccc(-n3c(-c4ccccc4)nc4ccccc4c3=O)cc2)cc1 (stereo not given) | > 100 µM (inactive) | 80.5 µM (inactive) | > 100 µM (inactive) | > 10 µM (inactive) | 62.2 µM (inactive) | > 100 µM (inactive) | > 100 µM (inactive) | 36.4 µM (inactive) | > 100 µM (inactive) | > 100 µM (inactive) | 80 µM (inactive) | 54 µM (inactive) | > 100 µM (inactive) | 71.3 µM (inactive) | > 100 µM (inactive) | 44.6 µM (inactive) | > 100 µM (inactive) | > 100 µM (inactive) | 45.8 µM (inactive) | > 100 µM (inactive)
2 | C[C@@H]1OCC(O)C([C@H]2OC(c3ccccc3)=N[C@H]2CO)O1 (stereo not given in full) | > 100 µM (inactive) | > 100 µM (inactive) | > 100 µM (inactive) | > 100 µM (inactive) | > 100 µM (inactive) | > 100 µM (inactive) | > 100 µM (inactive) | > 100 µM (inactive) | > 100 µM (inactive) | > 100 µM (inactive) | > 100 µM (inactive) | > 100 µM (inactive) | > 100 µM (inactive) | > 100 µM (inactive) | > 100 µM (inactive) | > 100 µM (inactive) | > 100 µM (inactive) | > 100 µM (inactive) | > 100 µM (inactive) | > 100 µM (inactive)
3 | CCOC(=O)CCC1(C(=O)O[C@@H]2C[C@H](C)CC[C@H]2C(C)C)CCCCC1=O (stereo not given in full) | > 100 µM (inactive) | 58.6 µM (inactive) | 65 µM (inactive) | 74.8 µM (inactive) | 43.3 µM (inactive) | > 100 µM (inactive) | > 100 µM (inactive) | > 100 µM (inactive) | 36.6 µM (inactive) | > 100 µM (inactive) | 50.4 µM (inactive) | > 100 µM (inactive) | 79.4 µM (inactive) | > 100 µM (inactive) | > 100 µM (inactive) | 41.2 µM (inactive) | 65.8 µM (inactive) | 40.7 µM (inactive) | > 100 µM (inactive) | 23.3 µM (inactive)
4 | COC1OC(C(=O)CP(=O)(OC)OC)C(OCc2ccccc2)C(OCc2ccccc2)C1OCc1ccccc1 (stereo not given) | 16.4 µM (inactive) | 16.4 µM (inactive) | 18.5 µM (inactive) and 18.2 µM (inactive) | 15.9 µM (inactive) and 17.5 µM (inactive) | 17.2 µM (inactive) and 16 µM (inactive) | 17.6 µM (inactive) and 17.3 µM (inactive) | 15.9 µM (inactive) and 16.3 µM (inactive) | 20.7 µM (inactive) and 34.3 µM (inactive) | 15 µM (inactive) and 15.9 µM (inactive) | 17.2 µM (inactive) and 18 µM (inactive) | 18.7 µM (inactive) and 18.9 µM (inactive) | 17.7 µM (inactive) and 17.2 µM (inactive) | 16.3 µM (inactive) and 17.1 µM (inactive) | 15.4 µM (inactive) and 17.4 µM (inactive) | 14.1 µM (inactive) | 16.4 µM (inactive) and 25.4 µM (inactive) | 16.5 µM (inactive) and 14.5 µM (inactive) | 16.3 µM (inactive) and 19.6 µM (inactive) | 16.9 µM (inactive) and 17.7 µM (inactive) | 16.5 µM (inactive) and 15.7 µM (inactive)
5 | CC[P+]1(c2ccccc2)[C@@H](C)CC[C@@H]1C | > 100 µM (inactive) | > 100 µM (inactive) | 85.1 µM (inactive) | > 100 µM (inactive) | > 100 µM (inactive) | > 100 µM (inactive) | > 100 µM (inactive) | > 100 µM (inactive) | > 100 µM (inactive) | > 100 µM (inactive) | > 100 µM (inactive) | > 100 µM (inactive) | > 100 µM (inactive) | > 100 µM (inactive) | > 100 µM (inactive) | > 100 µM (inactive) | > 100 µM (inactive) | > 100 µM (inactive) | > 100 µM (inactive) | > 100 µM (inactive)
6 | C=C(C)C1CCC2(C)C1CCC1(C)C2CCC2C3(C)C4OC(OC4=O)C(C)(C)C3CCC21C (stereo not given) | > 100 µM (inactive) | > 100 µM (inactive) | 48.3 µM (inactive) | > 100 µM (inactive) | > 100 µM (inactive) | > 100 µM (inactive) | > 100 µM (inactive) | > 100 µM (inactive) | > 100 µM (inactive) | > 100 µM (inactive) | > 100 µM (inactive) | > 100 µM (inactive) | > 100 µM (inactive) | > 100 µM (inactive) | > 100 µM (inactive) | > 100 µM (inactive) | > 100 µM (inactive) | 92 µM (inactive) | > 100 µM (inactive) | > 100 µM (inactive)
7 | CC(C)=CC1CC(C)C2(CCC3(C)CC4C(C(=O)CC4(C)O)/C(C=O)=C\CC32)O1 (stereo not given) | 0.0638 µM (active) | 0.0675 µM (active) | 0.0596 µM (active) | 0.0757 µM (active) | 0.0312 µM (active) | 0.021 µM (active) | 0.177 µM (active) | 0.0205 µM (active) | 0.133 µM (active) | 0.126 µM (active) | 0.102 µM (active) | 0.0582 µM (active) | 0.112 µM (active) | 0.14 µM (active) | 0.278 µM (active) | 0.03 µM (active) | 0.191 µM (active) | 0.0604 µM (active) | 0.136 µM (active) | 0.12 µM (active)
8 | CC(=O)OCC1OC(n2c(=O)[nH]c(=O)c3sccc32)C(Br)C1OC(C)=O (stereo not given) | > 100 µM (inactive) | > 100 µM (inactive) | > 100 µM (inactive) | > 100 µM (inactive) | > 100 µM (inactive) | > 100 µM (inactive) | > 100 µM (inactive) | > 100 µM (inactive) | > 100 µM (inactive) | > 100 µM (inactive) | > 100 µM (inactive) | > 100 µM (inactive) | > 100 µM (inactive) | > 100 µM (inactive) | > 100 µM (inactive) | > 100 µM (inactive) | > 100 µM (inactive) | > 100 µM (inactive) | > 100 µM (inactive) | > 100 µM (inactive)
9 | CCOC(=O)/C(C#N)=C1\c2c([nH]c(=S)[nH]c2=O)Oc2ccc3ccccc3c21 | 41.1 µM (inactive) | 30.1 µM (inactive) | 19.5 µM (inactive) | 88.1 µM (inactive) | 12.4 µM (inactive) | 53.8 µM (inactive) | 0.0887 µM (active) | 4.06 µM (inactive) | 0.0857 µM (active) | 42.2 µM (inactive) | > 100 µM (inactive) | > 100 µM (inactive) | 51.2 µM (inactive) | > 100 µM (inactive) | 36.6 µM (inactive) | 49.1 µM (inactive) | > 100 µM (inactive) | 75 µM (inactive) | 24.3 µM (inactive) | > 100 µM (inactive)

Source: ChEMBL document CHEMBL1201862, “PubChem BioAssay data set” (2004)
